In ChEMBL document CHEMBL1201862, “PubChem BioAssay data set” (2004):
Active and inactive are the calls of the source.

Columns and labels:
Vero [1] = assay: cells; type: functional; conditions: Chlorocebus sabaeus
Vero [2] = assay: cells; type: functional, cell-based; conditions: Chlorocebus sabaeus
[3] = biological target: Alkaline phosphatase, placental type (Homo sapiens, UniProt P05187); assay: PLAP enzyme inhibitors, confirmation, biochemical, luminescence (AID 1512); type: functional
[4] = biological target: T1, Alkaline phosphatase, tissue-nonspecific isozyme (Homo sapiens, UniProt P05186); assay: human TNAP enzyme inhibitors, SAR follow-up, biochemical, luminescent, dose response (AID 1056)
T1 sequence (P05186 whole entry): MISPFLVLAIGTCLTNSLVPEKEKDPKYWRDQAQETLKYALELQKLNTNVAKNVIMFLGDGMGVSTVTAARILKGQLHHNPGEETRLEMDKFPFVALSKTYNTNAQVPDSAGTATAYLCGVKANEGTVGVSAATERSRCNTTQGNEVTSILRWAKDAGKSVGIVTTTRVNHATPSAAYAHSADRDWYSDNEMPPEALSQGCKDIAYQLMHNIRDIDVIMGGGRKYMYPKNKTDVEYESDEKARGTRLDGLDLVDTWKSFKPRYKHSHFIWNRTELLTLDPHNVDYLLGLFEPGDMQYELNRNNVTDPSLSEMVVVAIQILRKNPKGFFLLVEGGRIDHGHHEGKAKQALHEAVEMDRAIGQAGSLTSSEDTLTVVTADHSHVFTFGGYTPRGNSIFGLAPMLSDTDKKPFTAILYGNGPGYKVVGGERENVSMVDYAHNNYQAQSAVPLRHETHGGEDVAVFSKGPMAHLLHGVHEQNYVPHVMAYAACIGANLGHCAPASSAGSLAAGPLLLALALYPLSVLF

Escherichia coli = assay: microbe, parasite or virus in culture
BJ [5] = assay: cytotoxicity toward BJ-TERT fibroblasts, dose response, cell-based, RAS-independent, luminescence (AID 1933); type: functional; conditions: Homo sapiens
[6] = Luminescence Cell-Based Dose Response HTS to Identify Inhibitors of 5'UTR Stem-Loop Driven Prion Protein mRNA Translation in H4 Neuroglioblastoma Cells. [Related pubchem assays: 1827 (Project Summary), 1813 (Primary HTS)]; type: functional
[7] = cytotoxicity toward DRD oncogenic fibroblasts, dose response, cell-based, non-viral oncogenic, luminescence (AID 1934); type: functional; conditions: Homo sapiens
[8] = inhibitors of firefly luciferase expression or activity, dose response, H4 neuroglioma cells, luminescence (AID 1990); type: functional, cell-based
[9] = cytotoxicity in HEK-293T cells, dose response, cytotoxicity control for TCR NF-kB inhibitor project, luminescence, T-cell screen hits (AID 489026); type: functional, cell-based;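 further: cells exposed to compound about 14 hours before the viability readout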
[10] = Luminescence Cell-Based Dose Retest to Confirm Inhibitors of Cancer Stem Cells. [Related pubchem assays (depositor defined):AID2717, AID2721]; type: functional; conditions: Homo sapiens
[11] = inhibitors of SNCA 5'UTR-driven reporter translation, confirmation, H4 neuroglioma cells, luminescence (AID 1988); type: functional, cell-based
BJ [12] = assay: cytotoxicity toward BJ-TERT-LT-ST fibroblasts, dose response, cell-based, RAS-independent, luminescence (AID 1935); type: functional; conditions: Homo sapiens;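 further: BJ fibroblasts immortalized with TERT plus LT and ST oncogenes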
[13] = biological target: Peroxisome proliferator-activated receptor gamma/Nuclear receptor coactivator 2 (Homo sapiens, UniProt P37231); assay: (§1) TR-FRET dose response biochemical High Throughput Screening assay for agonists of the steroid receptor coactivator 2 (SRC-2) recruitment by the peroxisome proliferator-activated receptor gamma (PPAR gamma): non-selective agonists. [Related pubchem assays: 1297, 1032 ]; type: functional
[14] = biological target: Peroxisome proliferator-activated receptor gamma/Nuclear receptor coactivator 3 (Homo sapiens, UniProt P37231); assay: as §1, with “3 (SRC-3)” for “2 (SRC-2)”, “1301 (Confirmation screen.), 1048 (Primary screen.)]” for “1297, 1032 ]”; type: functional
[15] = biological target: T2, Carboxy-terminal domain RNA polymerase II polypeptide A small phosphatase 1 (Homo sapiens, UniProt Q9GZU7); assay: inhibitors of CTDSP1, concentration-response testing, biochemical assay, absorbance-based, actives from ultra-high-throughput screening (AID 540297); type: functional
T2 sequence (Q9GZU7 whole entry): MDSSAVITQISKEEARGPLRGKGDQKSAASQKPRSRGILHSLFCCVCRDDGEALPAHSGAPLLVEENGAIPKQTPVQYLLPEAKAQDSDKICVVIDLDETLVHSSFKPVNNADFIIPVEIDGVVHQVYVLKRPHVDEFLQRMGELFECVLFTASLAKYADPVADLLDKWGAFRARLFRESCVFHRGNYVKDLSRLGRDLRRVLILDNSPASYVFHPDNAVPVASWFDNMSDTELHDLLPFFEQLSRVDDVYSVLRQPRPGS

[16] = biological target: Peroxisome proliferator-activated receptor gamma/Nuclear receptor coactivator 1 (Homo sapiens, UniProt P37231); assay: as §1, with “1 (SRC-1)” for “2 (SRC-2)”, “assays (depositor defined):AID1300, AID1808, AID504735, AID631]” for “assays: 1297, 1032 ]”; type: protein assay
[17] = Luminescence Cell-Based Dose Response HTS to Identify Activators of Luciferase Translation or Activity in H4 […] Cells. [Related pubchem assays: 1829 (Project Summary), 1814 (Primary HTS)]; type: functional
H4 = assay: Luminescence Cell-Based Dose Response HTS to Identify Activators of 5'UTR Stem-Loop Driven Prion Protein mRNA Translation in H4 Neuroglioblastoma Cells. [Related pubchem assays: 1829 (Project Summary), 1814 (Primary HTS)]; type: functional; conditions: Homo sapiens
[18] = Luminescence Cell-Based Dose Confirmation HTS to Identify Activators of 5'UTR Stem-Loop Driven Alpha-Synuclein mRNA Translation in H4 Neuroglioblastoma Cells. [Related pubchem assays: 1829 (Project Summary), 1814 (Primary HTS)]; type: functional
[19] = biological target: T3, Microphthalmia-associated transcription factor (Homo sapiens, UniProt O75030); assay: TRPM1 promoter luciferase signal decrease, dose response, MITF inhibitor project, cell-based, SK-MEL-5, cherry-picked, set 3 (AID 493073); type: functional
T3 sequence (O75030 whole entry): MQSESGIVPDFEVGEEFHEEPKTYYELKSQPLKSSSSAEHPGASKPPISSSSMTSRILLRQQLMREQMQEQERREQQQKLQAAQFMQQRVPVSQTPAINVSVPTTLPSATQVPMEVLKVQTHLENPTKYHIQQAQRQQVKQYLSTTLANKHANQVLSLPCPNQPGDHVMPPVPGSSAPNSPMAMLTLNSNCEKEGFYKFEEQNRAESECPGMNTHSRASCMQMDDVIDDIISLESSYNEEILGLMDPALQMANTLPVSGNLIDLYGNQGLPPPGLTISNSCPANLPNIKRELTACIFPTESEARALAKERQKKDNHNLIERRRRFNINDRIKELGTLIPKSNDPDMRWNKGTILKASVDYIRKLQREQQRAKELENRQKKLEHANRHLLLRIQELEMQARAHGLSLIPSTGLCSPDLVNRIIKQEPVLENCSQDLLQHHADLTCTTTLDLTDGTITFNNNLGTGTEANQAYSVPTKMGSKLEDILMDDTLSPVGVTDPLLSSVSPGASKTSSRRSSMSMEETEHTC

[20] = biological target: T4, Endoribonuclease toxin MazF (Escherichia coli K-12, UniProt P0AE70); assay: MazF toxin RNase activators, dose response, biochemical, fluorescence, single-stranded RNA substrate, uHTS hits (AID 588481); type: functional
T4 sequence (P0AE70 whole entry): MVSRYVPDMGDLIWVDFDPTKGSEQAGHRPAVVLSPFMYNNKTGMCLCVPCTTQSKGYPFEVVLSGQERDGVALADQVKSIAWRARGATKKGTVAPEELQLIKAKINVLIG

[21] = biological target: T4, Endoribonuclease toxin MazF; assay: fluorescent RNA oligo signal without MazF, dose response, counter-screen for MazEF activator project, biochemical, fluorescence, single-stranded RNase substrate (AID 588502); type: functional
[22] = biological target: Dual specificity tyrosine-phosphorylation-regulated kinase 1A (Rattus norvegicus, UniProt Q63470); type: biochemical, Homo sapiens
[23] = biological target: T5, Rac GTPase-activating protein 1 (Homo sapiens, UniProt Q9H0H5); assay: MgcRacGAP GTPase-activating activity inhibitors, confirmation, biochemical, ADP Hunter fluorescence, primary and confirmatory (AID 624330); type: functional
T5 sequence (Q9H0H5 whole entry): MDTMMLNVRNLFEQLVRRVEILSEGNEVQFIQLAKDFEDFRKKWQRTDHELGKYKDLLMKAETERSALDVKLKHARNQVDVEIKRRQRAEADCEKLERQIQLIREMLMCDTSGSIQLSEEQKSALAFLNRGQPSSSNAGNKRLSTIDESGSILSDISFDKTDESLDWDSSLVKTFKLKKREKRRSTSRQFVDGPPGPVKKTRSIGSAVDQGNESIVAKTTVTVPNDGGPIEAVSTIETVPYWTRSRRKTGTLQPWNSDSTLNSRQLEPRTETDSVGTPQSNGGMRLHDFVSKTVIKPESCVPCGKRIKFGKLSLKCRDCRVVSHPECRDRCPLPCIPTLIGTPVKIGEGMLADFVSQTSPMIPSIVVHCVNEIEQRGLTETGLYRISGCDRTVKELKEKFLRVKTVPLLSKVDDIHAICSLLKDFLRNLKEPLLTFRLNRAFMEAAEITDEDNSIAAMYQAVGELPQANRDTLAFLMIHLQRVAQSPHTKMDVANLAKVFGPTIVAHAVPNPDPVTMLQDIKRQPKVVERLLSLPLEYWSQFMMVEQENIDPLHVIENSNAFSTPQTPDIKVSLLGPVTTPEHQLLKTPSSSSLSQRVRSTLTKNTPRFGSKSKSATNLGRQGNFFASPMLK

Cytochrome P450 3A4 = Cytochrome P450 3A4 (Homo sapiens, UniProt P08684);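 further: CYP3A4 tested as one member of a cytochrome P450 panel screen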
[24] = biological target: T6, High affinity choline transporter 1 (Homo sapiens, UniProt Q9GZV3); assay: CHT inhibitors, dose response, cell-based, 5-point CRC, membrane potential dye (AID 504840); type: functional
T6 sequence (Q9GZV3 whole entry): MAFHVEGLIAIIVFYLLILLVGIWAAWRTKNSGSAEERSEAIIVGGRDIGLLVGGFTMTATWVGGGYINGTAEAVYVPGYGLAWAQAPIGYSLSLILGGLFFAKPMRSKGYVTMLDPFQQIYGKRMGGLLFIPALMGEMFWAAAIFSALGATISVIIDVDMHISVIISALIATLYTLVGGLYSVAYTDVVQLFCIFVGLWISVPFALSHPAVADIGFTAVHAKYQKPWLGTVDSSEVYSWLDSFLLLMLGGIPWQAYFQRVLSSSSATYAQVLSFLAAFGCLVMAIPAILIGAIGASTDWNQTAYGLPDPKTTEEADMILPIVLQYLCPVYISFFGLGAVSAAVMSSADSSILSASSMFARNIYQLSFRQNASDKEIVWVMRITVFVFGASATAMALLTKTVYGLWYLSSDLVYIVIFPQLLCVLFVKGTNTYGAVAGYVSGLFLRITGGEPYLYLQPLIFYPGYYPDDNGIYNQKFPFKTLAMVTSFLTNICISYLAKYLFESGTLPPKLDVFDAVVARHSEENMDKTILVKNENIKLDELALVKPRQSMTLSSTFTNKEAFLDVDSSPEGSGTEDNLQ

Peroxisome proliferator-activated receptor gamma/Nuclear receptor coactivator 3, sequence (P37231 whole entry, the tested form may be a part): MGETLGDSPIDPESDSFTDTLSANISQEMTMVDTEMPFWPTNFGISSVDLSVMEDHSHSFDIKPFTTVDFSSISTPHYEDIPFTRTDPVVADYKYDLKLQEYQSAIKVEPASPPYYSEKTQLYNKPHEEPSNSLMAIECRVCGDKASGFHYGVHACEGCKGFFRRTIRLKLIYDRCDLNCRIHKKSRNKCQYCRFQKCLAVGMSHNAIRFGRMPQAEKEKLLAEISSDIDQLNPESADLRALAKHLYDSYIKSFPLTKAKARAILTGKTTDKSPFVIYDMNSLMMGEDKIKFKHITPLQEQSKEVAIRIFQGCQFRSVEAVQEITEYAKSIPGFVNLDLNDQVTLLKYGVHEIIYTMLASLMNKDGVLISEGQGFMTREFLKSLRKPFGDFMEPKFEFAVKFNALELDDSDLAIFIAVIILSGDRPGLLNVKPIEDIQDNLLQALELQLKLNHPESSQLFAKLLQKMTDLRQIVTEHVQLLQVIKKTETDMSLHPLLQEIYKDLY
Peroxisome proliferator-activated receptor gamma/Nuclear receptor coactivator 3, sequence (Q9Y6Q9 whole entry, further chain, the tested form may be a part): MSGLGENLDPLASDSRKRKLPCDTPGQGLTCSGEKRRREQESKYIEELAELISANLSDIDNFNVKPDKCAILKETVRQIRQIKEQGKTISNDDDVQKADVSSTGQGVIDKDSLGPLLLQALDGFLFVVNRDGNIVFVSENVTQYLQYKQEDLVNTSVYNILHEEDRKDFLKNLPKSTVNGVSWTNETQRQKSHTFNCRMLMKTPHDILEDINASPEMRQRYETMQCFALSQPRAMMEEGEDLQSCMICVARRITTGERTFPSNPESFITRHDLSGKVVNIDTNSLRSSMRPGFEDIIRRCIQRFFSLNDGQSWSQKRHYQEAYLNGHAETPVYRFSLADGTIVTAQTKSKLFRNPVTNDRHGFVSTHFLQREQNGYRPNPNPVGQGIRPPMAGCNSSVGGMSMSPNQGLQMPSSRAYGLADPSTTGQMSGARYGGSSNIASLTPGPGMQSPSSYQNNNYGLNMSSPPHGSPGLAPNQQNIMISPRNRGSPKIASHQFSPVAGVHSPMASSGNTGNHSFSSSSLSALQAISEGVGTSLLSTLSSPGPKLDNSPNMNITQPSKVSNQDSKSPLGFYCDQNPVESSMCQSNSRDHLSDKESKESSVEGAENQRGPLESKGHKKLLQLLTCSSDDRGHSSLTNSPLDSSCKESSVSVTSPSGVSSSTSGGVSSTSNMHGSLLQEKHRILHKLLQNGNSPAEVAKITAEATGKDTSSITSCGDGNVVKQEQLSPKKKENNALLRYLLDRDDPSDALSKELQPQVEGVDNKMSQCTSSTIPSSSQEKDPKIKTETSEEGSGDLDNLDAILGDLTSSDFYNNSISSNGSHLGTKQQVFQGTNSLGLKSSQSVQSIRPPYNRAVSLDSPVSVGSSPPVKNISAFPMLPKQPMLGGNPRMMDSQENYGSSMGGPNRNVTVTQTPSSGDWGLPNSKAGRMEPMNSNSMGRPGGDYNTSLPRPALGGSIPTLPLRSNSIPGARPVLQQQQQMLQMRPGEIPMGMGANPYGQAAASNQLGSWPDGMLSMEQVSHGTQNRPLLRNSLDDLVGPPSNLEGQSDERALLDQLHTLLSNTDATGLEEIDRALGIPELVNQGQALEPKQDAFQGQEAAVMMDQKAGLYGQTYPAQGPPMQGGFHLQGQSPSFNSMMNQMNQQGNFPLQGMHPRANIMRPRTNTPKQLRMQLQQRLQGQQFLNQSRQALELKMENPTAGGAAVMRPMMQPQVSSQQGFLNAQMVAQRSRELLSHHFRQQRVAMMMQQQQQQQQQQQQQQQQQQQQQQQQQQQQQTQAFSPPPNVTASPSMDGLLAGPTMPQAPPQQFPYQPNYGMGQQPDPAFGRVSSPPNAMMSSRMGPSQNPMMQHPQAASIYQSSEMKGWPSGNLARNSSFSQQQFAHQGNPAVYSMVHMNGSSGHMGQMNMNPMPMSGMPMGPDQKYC
Peroxisome proliferator-activated receptor gamma/Nuclear receptor coactivator 2, sequence (P37231 whole entry): as the sequence (P37231 whole entry, the tested form may be a part) above
Peroxisome proliferator-activated receptor gamma/Nuclear receptor coactivator 2, sequence (Q15596 whole entry, further chain): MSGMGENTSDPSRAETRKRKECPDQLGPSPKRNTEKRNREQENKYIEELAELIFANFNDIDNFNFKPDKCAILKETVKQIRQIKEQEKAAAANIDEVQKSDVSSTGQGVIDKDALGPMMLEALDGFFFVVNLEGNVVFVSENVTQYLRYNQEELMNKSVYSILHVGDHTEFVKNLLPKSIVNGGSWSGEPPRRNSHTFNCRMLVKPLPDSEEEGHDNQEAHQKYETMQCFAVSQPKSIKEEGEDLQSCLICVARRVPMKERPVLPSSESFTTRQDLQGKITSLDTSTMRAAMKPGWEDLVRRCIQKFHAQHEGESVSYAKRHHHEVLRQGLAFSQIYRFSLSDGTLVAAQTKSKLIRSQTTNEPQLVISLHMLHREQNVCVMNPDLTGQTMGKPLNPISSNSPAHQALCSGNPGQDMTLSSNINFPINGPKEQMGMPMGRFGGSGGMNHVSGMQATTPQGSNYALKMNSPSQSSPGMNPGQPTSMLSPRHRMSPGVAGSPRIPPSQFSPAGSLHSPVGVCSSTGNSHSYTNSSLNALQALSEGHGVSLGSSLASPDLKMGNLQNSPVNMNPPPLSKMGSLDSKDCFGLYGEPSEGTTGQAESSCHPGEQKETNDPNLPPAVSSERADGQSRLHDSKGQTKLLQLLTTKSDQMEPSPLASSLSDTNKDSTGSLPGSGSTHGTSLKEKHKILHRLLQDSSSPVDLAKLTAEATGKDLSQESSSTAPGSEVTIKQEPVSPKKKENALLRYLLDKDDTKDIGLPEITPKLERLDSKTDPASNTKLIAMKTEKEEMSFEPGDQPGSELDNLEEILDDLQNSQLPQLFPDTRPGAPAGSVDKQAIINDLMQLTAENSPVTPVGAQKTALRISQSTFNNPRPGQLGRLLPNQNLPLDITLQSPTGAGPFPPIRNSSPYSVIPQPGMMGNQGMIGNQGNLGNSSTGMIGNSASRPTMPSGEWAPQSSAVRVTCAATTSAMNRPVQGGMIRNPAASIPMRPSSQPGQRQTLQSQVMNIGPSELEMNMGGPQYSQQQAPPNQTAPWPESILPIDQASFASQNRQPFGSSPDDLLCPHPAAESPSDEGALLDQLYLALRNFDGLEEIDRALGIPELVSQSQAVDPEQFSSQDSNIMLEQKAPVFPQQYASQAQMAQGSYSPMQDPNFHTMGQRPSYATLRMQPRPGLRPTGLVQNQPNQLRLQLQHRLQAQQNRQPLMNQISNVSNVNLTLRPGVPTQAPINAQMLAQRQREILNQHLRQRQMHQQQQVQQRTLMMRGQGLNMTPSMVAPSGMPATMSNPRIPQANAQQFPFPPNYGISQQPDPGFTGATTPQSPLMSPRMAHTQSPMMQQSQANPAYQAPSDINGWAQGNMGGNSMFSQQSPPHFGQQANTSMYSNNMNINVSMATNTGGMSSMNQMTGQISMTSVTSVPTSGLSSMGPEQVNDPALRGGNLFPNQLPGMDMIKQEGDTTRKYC
Alkaline phosphatase, placental type, sequence (P05187 whole entry): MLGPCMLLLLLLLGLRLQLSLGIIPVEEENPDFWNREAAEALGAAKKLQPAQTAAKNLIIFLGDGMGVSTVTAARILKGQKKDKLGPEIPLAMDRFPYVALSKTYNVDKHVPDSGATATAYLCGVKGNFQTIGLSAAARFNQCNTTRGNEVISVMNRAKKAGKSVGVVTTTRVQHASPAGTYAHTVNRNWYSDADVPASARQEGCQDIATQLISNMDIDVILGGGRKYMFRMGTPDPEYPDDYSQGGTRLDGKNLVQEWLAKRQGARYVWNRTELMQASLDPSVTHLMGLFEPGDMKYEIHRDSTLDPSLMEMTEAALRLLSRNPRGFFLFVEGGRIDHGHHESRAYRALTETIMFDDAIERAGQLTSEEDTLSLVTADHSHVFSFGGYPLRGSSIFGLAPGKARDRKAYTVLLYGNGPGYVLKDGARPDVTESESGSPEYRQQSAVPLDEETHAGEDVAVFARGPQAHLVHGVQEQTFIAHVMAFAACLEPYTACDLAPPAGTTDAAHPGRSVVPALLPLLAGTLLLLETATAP
Cytochrome P450 3A4, sequence (P08684 whole entry): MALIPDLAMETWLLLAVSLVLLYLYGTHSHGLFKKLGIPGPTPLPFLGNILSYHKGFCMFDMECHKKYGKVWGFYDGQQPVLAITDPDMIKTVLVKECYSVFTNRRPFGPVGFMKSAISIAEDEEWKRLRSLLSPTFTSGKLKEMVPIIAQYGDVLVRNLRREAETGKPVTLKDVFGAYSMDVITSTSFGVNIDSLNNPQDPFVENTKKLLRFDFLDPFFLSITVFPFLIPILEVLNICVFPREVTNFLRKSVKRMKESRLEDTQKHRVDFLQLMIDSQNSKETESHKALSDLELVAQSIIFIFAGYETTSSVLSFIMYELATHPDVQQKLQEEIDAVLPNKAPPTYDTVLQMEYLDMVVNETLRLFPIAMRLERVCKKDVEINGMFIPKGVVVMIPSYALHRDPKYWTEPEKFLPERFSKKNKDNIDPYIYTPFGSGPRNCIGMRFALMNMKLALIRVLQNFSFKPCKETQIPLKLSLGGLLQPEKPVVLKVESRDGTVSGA

SMILES: CC(=O)/C=C1/C(=O)Nc2ccccc21
- CC50 (Vero [1]): 21.9 µM (active)
- IC50 (Vero [2]): > 25 µM (active)

SMILES: Nc1nnc(-c2cc3ccccc3oc2=O)s1
- IC50 [3]: > 100 µM (inactive)
- IC50 [4]: > 100 µM (inactive)

SMILES: CC(C)(C)c1ccc(C(=O)n2cnc3ccccc32)cc1
- AC50 (Escherichia coli): 33.1 µM (active)

SMILES: Cc1nc2ccccc2c(=O)n1CCCO
- AC50 (Escherichia coli): 27.2 µM (active)

SMILES: COc1cccc(-c2cc(O)c3cc(NC(=O)c4ccc(N(C)C)cc4)ccc3n2)c1
- EC50 (BJ [5]): 0.664 µM (active)
- EC50 [6]: 1.24 µM (active)
- EC50 [7]: 0.599 µM (active)
- EC50 [8]: 0.334 µM (active)
- IC50 [9]: > 80 µM (inactive)
- AC50 [10]: 0.477 µM (active)
- EC50 [11]: 0.296 µM (active)
- EC50 (BJ [12]): 0.729 µM (inconclusive)

SMILES: CC(=O)Nc1cc[n+](CC(=O)c2cccc([N+](=O)[O-])c2)cc1
- IC50 (Vero [2]): 6.55 µM (active)

SMILES: COc1ccc(CC(=O)NNC(=O)COc2ccc3ccccc3c2)cc1
- EC50 [13]: 1.93 µM (active)
- EC50 [14]: 3.65 µM (active)
- IC50 [15]: 9.26 µM (active)
- EC50 [16]: 2 µM (active)

SMILES: Cc1cc2ncn(CCOc3ccccc3)c2cc1C
- AC50 (Escherichia coli): 41.4 µM (active)
- EC50 [17]: 39 µM (active)
- EC50 (H4): 38.8 µM (active)
- EC50 [18]: 19.4 µM (active)

SMILES: COc1cc(S(=O)(=O)Nc2cc(C)cc(C)c2)ccc1F
- AC50 (Escherichia coli): 64.9 µM (active)

SMILES: CCOC(=O)CSC1=NC(=O)/C(=C\c2ccc(OC(C)=O)cc2)S1
- AC50 [19]: 5.12 µM (active)
- EC50 [20]: > 99 µM (inactive)
- EC50 [21]: > 99 µM (inactive)
- AC50 [22]: 0.216 µM (active)
- IC50 [23]: 35.2 µM (active)
- EC50 [17]: 10.4 µM (active)
- EC50 (H4): 10.5 µM (active)
- AC50 (Cytochrome P450 3A4): 14.1 µM (inconclusive)
- EC50 [18]: 8.97 µM (active)

SMILES: CC(C)COC(=O)CNc1nnc(S)nc1O
- EC50 [13]: 3.42 µM (active)
- EC50 [14]: 37.9 µM (not active)
- EC50 [16]: 2.86 µM (active)

SMILES: Cc1cc(C)cc(NC(=O)c2cc(C)n(Cc3cccs3)c2C)c1
- IC50 [9]: > 80 µM (inactive)

SMILES: O=C(CSc1ncnc2c1oc1ccccc12)Nc1cccc(C(F)(F)F)c1
- EC50 [13]: 23 µM (not active)
- EC50 [14]: > 79.4 µM (not active)
- EC50 [16]: > 79.4 µM (inactive)

SMILES: CCc1nccn1CC(=O)c1ccc(O)c(O)c1
- IC50 [3]: 3.73 µM (active)
- IC50 [4]: 62.5 µM (active)

SMILES: CC(=O)Nc1ccc(Nc2cc(C)c3ccccc3n2)cc1
- IC50 [24]: 11.2 µM (active)

SMILES: Cc1cc(C)c2c(O)nc(SCC(=O)c3ccc(O)c(O)c3)nc2n1
- IC50 [3]: 8.77 µM (active)
- IC50 [4]: > 100 µM (inactive)

SMILES: CC(=O)Nc1ccc(CCNC(=O)c2ccc3ccccc3c2O)cc1
- IC50 (Vero [2]): > 25 µM (active)
